How the values were obtained:
Assay type in all cases: in vivo
[1] = tested on: Diabrotica undecimpunctata (southern corn rootworm); experiment: Method B: Diabrotica undecimpunctata (southern corn rootworm) screen; details: concentration 10 ppm; eggs on filter paper with maize seed; assessed 6 days after application
From the text: METHOD B: Diabrotica undecimpunctata (southern corn rootworm) screen
Two days before application, seeds of maize were soaked in water under warm conditions to elicit fast germination. One day before application, eggs of Diabrotica undecimpunctata were transferred to one half of a Japanese filter paper placed in a plastic petri dish. Afterwards, a sprouted maize seed was placed on a moistened pad beside the filter paper. Three drops of 200 microlitres of test compound solution were carefully pipetted onto the egg. The remainder of the solution was placed on the maize and then the Petri dish was closed. The treated eggs in the Petri dishes were held in a climate chamber for 6 days. The compound efficacy (percentage of dead eggs and/or larvae in comparison to untreated control) was assessed 6 days after application using a binocular microscope. Compound number 1-1 gave at least 60% control with the concentration at 10 ppm.

[2] = tested on: Ctenocephalides felis (Cat flea); experiment: Method A: screening method to test systemicity against Ctenocephalides felis (artificial dog test, treated bovine blood); details: test concentration 1 ppm in bovine blood; 10 adults; assessment at 24 and 48 hours
Procedure: METHOD A: Screening method to test systemicity of compounds against Ctenocephalides felis (Cat flea)
A test container was filled with 10 adults of Ctenocephalides felis. A glass cylinder was closed on one end with parafilm and placed on top of the test container. The test compound solution was then pipetted into bovine blood and added to the glass cylinder. The treated Ctenocephalides felis were held in this artificial dog test (blood 37° C., 40-60% relative humidity; Ctenocephalides felis 20-22° C., 40-60% relative humidity) and assessment performed at 24 and 48 hours after application.

[3] = tested on: tobacco budworm (Heliothis virescens); experiment: Method E: Heliothis virescens screen; details: concentration 100 ppm; egg dip; after 6 days
Procedure: METHOD E: Heliothis Virescens Screen
A Petri dish whose bottom is covered with filter paper and which contains about 5 ml of culture medium is prepared. Pieces of filter paper with about 30, 24-hour-old eggs of the tobacco budworm (Heliothis virescens) are dipped into an aqueous solution of the formulated preparation to be examined for about 5 seconds and subsequently placed into the Petri dish. A further 200 μl of the aqueous solution are dropped over the culture medium. The Petri dish is closed and then kept at about 25° C. in a climatized chamber. After 6 days storage, the effect of the preparation on the eggs and the larvae which may have hatched from these is determined. Compound number 1-1 gave at least 50% control of tobacco budworm with the concentration at 100 ppm.

[4] = tested on: Frankliniella occidentalis; experiment: Method F: Thrip (Frankliniella occidentalis) screen; details: concentration 100 ppm; French bean leaf dip; mixed population; after 7 days
Procedure: METHOD F: Thrip (Frankliniella occidentalis) Screen
French bean plants are cut at the base of the stem and transferred into bottles filled with tap water. The leaves are then dipped for 5 seconds into an aqueous solution of the formulated preparation to be examined. After the solution has run off, the leaves are infested with 20-30 individuals of a mixed population of flower thrips (Frankliniella occidentalis) and then stored in a controlled-environment cabinet at approx. 25° C. After 7 days storage, the effect of the preparation on the thrips is determined. Compound number 1-1 gave at least 70% control of Frankliniella occidentalis at the concentration of 100 ppm.

Nilaparvata lugens = experiment: Method C: Rice leafhopper screen; details: foliar, 144 h, read-out: control of Nilaparvata lugens (mortality among leafhopper larvae)
Procedure: METHOD C: Rice leafhopper screen
The leaves of rice plants are dipped for 5 seconds into an aqueous solution of the formulated preparation to be examined. After the solution has run off, the rice plants are placed in a Petri dish and populated with about 20 larvae (L3 stage) of the rice leafhopper species Nilaparvata lugens. The Petri dish is closed and then stored in a climatized chamber (16 hours of light/day, 25° C., 40-60% relative atmospheric humidity). After 6 days storage, the mortality among the leafhopper larvae is determined. Compound number 1-1 gave at least 60% control of Nilaparvata lugens with the concentration of 10 ppm.

[5] = tested on: Rhipicephalus sanguineus (Brown dog tick); experiment: Method D: screening method to test contact activity against Rhipicephalus sanguineus; details: test concentration 10 ppm; filter paper contact; L1 larvae; 24 hours after application
Procedure: METHOD D: Screening method to test contact activity against Rhipicephalus sanguineus (Brown dog tick)
Solutions of the test compounds were dropped onto filter paper, dried and the filter paper placed into test tubes and infested with 20-30 larvae (L1) of Rhipicephalus sanguineus and the tubes closed with a clip. The treated Rhipicephalus sanguineus were held in a climate chamber (25° C., 90% RH) and the percentage efficacy assessed 24 hours after application in comparison with the untreated control.

Compound	control (percentage of dead eggs and/or larvae in comparison to untreated control) [1]	control of Ctenocephalides felis [2]	control of tobacco budworm (effect on eggs and larvae) [3]	control of Frankliniella occidentalis [4]	mortality at 10 ppm (Nilaparvata lugens)	control (percentage efficacy in comparison with untreated control) [5]
C=CN(C)c1c(S(=O)(=O)C(F)(F)F)c(C#N)nn1-c1c(Cl)cc(C(F)(F)F)cc1Cl [Compound 1-1, 1-[2,6-dichloro-4-(trifluoromethyl)phenyl]-5-[methyl(vinyl)amino]-4-[(trifluoromethyl)sulfonyl]-1H-pyrazole-3-carbonitrile]	at least 60%	at least 50%	at least 50%	at least 70%	≥ 60%	at least 50%
CN(CCI)c1c(S(=O)(=O)C(F)(F)F)c(C#N)nn1-c1c(Cl)cc(C(F)(F)F)cc1Cl [Intermediate Example 2, 1-[2,6-dichloro-4-(trifluoromethyl)phenyl]-5-[(2-iodoethy)(methyl)amino]-4-[(trifluoromethyl)sulfonyl]-1H-pyrazole-3-carbonitrile]		at least 70%				
